The values that follow come from ChEMBL document CHEMBL1134369, “Inhibition of heme detoxification processes underlies the antimalarial activity of terpene isonitrile compounds from marine sponges” (J Med Chem, 2001).

In this assay the test system is Plasmodium falciparum. Nature of the assay: Antiplasmodial activity against Plasmodium falciparum D6. It counts as functional, organism-based.
For orientation: IC50 means the concentration that inhibits the measured activity by half. The compound `[C-]#[N+][C@@]1(C)CC[C@H]2[C@H]3[C@@H](C(=C)CC[C@@H]31)[C@H](CC(C)(C)N=C=S)C[C@@H]2C` returned an IC50 of 1320 nM.

`[C-]#[N+][C@@]1(C)CC[C@H]2[C@H]3[C@@H]4[C@H](C[C@@H](C)[C@@](C)(N=C=O)[C@H]4CC[C@@H]31)C[C@@H]2C` displayed an IC50 of 9.4 nM.

As to `[C-]#[N+][C@@]1(C)CC[C@H]2[C@H]3[C@H]4C(=CC(C)(C)C[C@@H]4C[C@@H]2C)CC[C@@H]31`, inhibition was half-maximal at 249 nM (IC50).

Turning to `[C-]#[N+][C@@]1(C)CC[C@H]2[C@H]3[C@H]4C(=CC[C@@H]31)CC(C)(C)C[C@@H]4C[C@@H]2C`, the IC50 is 285 nM.

`CC(C)=CCC[C@@H](C)[C@H]1CC[C@](C)(N=C=S)[C@H]2CCC(C)=C[C@H]12`: the IC50 was greater than 30200 nM.

Regarding `[C-]#[N+][C@@]1(C)CC[C@H]2[C@H]3[C@H]4[C@H](CC[C@@H]31)[C@H](C)C(C)=C[C@@H]4C[C@@H]2C`, the IC50 came out at 210 nM.

In turn, `[C-]#[N+][C@@]1(C)CC[C@H]2[C@@H]3[C@@H]1CC[C@@H](C)[C@]3(/C=C/C(=C)C)C[C@@H]2C` gave an IC50 of 289 nM.

`[C-]#[N+][C@@]1(C)CC[C@H]2[C@H]3[C@@H](C(=C)CC[C@@H]31)[C@H](CC(=C)C)C[C@@H]2C` returned an IC50 of 1750 nM.

In turn, `[C-]#[N+][C@@]1(C)CC[C@H]2[C@H]3C(=C(C)CC[C@@H]31)[C@@H](C=C(C)C)C[C@@H]2C` registered an IC50 of 197 nM.

With `[C-]#[N+][C@@]1(C)CC[C@H]2[C@H]3[C@@H](C(=C)CC[C@@H]31)[C@@H](C=C(C)C)C[C@@H]2C`, the IC50 is 47.4 nM.

`[C-]#[N+][C@]1(C)[C@H](C)C[C@@H]2C[C@H](C)[C@H]3CC[C@](C)(N=C=O)[C@H]4CC[C@H]1[C@@H]2[C@H]34` registered an IC50 of 220 nM.

On to `C=C[C@H]1C[C@H](C)[C@H]2CC[C@](C)(N=C=S)[C@H]3CCC(=C)[C@]1(O)[C@H]23`, for which half-maximal inhibition (IC50) was put at 2310 nM.

For `[C-]#[N+][C@@]1(C)CC[C@H]2[C@H]3[C@@H](C(C)=CC[C@@H]31)[C@H](C=C(C)C)C[C@@H]2C`, half-maximal inhibition (IC50) required 1020 nM.

Regarding `[C-]#[N+][C@]1(C)[C@H](C)C[C@@H]2C[C@H](C)[C@H]3CC[C@](C)(N=C=S)[C@H]4CC[C@H]1[C@@H]2[C@H]34`, the IC50 came to 126 nM.

Take `[C-]#[N+][C@]1(C)[C@H](C)C[C@@H]2C[C@H](C)[C@H]3CC[C@](C)([N+]#[C-])[C@H]4CC[C@H]1[C@@H]2[C@H]34` [DIISOCYANOADOCIANE]: the IC50 was 14.5 nM.
